Measured values as given in patent publication EP0443518A2, “Pharmaceutical containing episialo complex carbohydrate” (MECT CORPORATION, priority 1990, dated 1991).
“Also recorded” adds a separate entry of the source.

Assays:
[1] = tested on: normal sera derived from C57BL/6 femal mice; experiment: ELISA: reactivity of normal mouse serum with gangliosides; type: binding; conditions: C57BL/6 female mice 9 weeks old, 100 ng ganglioside per well, absorbance at 490 nm, Fig. 1
Description: (§1) A serum was obtained by clotting of blood which was collected from a mouse retroorbitally (eyeground method) and removing the clotted blood by centrifugation.
(§2) ELISA assay was conducted by the conventional method.
100 ng of each ganglioside dissolved in ethanol was added to each well of a 96-well microtiter plate and then allowed to stand at 37°C to remove ethanol completely. A blocking solution comprising a phosphate buffer solution (PBS) containing 5% of bovine serum albumin (BSA) or the like was added to the wells and the plate was incubated at 37°C for 2 hours. After the blocking solution was removed, the collected mouse serum was added to each well and the plate was incubated at 37°C for 1 hour. Each well was washed with a phosphate buffer solution containing 1% of BSA. Anti-mouse IgG, IgM and IgA antibodies which were labeled with peroxidase were added to each well and the plate was incubated at 37°C for 1 hour. Each well was washed with a phosphate buffer solution containing 1% of BSA. A substrate solution containing 400 µg/ml of o-phenylenediamine and 0.001% of hydrogen peroxide was added to each well, and the reaction was conducted at room temperature for 15 minutes. 8N sulfuric acid was added to stop the reaction and then the absorbance of the reaction mixture in each well was measured at 490 nm by using a spectrophotometer for a microtiter plate. […]

[2] = tested on: sera derived from C57BL/6 female mice (9 weeks old) implanted with B16 melanoma cells; experiment: ELISA: reactivity of serum of tumor-implanted mice with gangliosides; type: binding, mouse; conditions: for Reactivity of mouse serum: sera of mice implanted with B16 melanoma cells, 2 weeks after implantation, 100 ng ganglioside per well, absorbance at 490 nm, Fig. 2
Description: as §1, §2
(§3) 100 ng of each ganglioside dissolved in ethanol was added to each well of a 96-well microtiter plate and then allowed to stand at 37°C to remove ethanol completely. A blocking solution comprising a phosphate buffer solution (PBS) containing 5% of bovine serum albumin (BSA) or the like was added to the wells and the plate was incubated at 37°C for 2 hours. After the blocking solution was removed, the collected mouse serum was added to each well and the plate was incubated at 37°C for 1 hour. Each well was washed with a phosphate buffer solution containing 1% of BSA. Anti-mouse IgG, IgM and IgA antibodies which were labeled with peroxidase were added to each well and the plate was incubated at 37°C for 1 hour. Each well was washed with a phosphate buffer solution containing 1% of BSA. A substrate solution containing 400 µg/ml of o-phenylenediamine and 0.001% of hydrogen peroxide was added to each well, and the reaction was conducted at room temperature for 15 minutes. 8N sulfuric acid was added to stop the reaction and then the absorbance of the reaction mixture in each well was measured at 490 nm by using a spectrophotometer for a microtiter plate.
In Fig. 2, ●, △, ▲ and □ show the data with respect to a serum derived from a tumor the diameter of which is 5 mm or less, 6 mm, 8 mm and 16 mm, respectively.
Values shown in Fig. 1 and Fig. 2 were obtained by subtracting background values and taking the average of three wells.
Values shown in Fig. 3 were obtained by subtracting background values and taking the average of three wells.

[3] = tested on: reactivity of mouse serum with epiGM₃; experiment: ELISA: inhibition by acetylneuraminic acid of the reactivity of mouse serum with epiGM₃; type: binding; conditions: sodium N-acetylneuraminate solutions of various concentration added to serum of tumor-implanted mouse; Fig. 4
Description: as §3
Sodium N-acetylneuraminate solutions of various concentration were added to the same sera of mice as those used in the above (2). Values shown in Fig. 4 were obtained by subtracting background values and taking the average of three wells. […]

CCCCCCCCCCCCCC=CC(O)C(COC1OC(CO)C(OC2OC(CO)C(O)C(OC3(C(=O)O)CC(O)C(NC(C)=O)C(C(O)C(O)CO)O3)C2O)C(O)C1O)NC(=O)CCCCCCCCCCCCCCCCCCCCCCC (stereo not shown) [GM₃, reference compound]
Reactivity of mouse serum [1]: did not react
Reactivity of mouse serum [2]: did not react

CCCCCCCCCCCCCC=CC(O)C(COC1OC(CO)C(OC2OC(CO)C(O)C(OC3(C(=O)O)CC(O)C(NC(C)=O)C(C(O)C(O)CO)O3)C2O)C(O)C1O)NC(=O)CCCCCCCCCCCCCCCCCCCCCCC (stereo not shown) [epiGM₃]
Reactivity of mouse serum [1]: reacted
reaction level / reactivity compared with sera derived from normal mice ([2]; sera of mice implanted with B16 melanoma cells versus normal sera, Fig. 2 versus Fig. 1): remarkably increased; also recorded: stronger
Reactivity of mouse serum [2]: reacted
reactivity (rank among GM₃, epiGM₃, GM₄, epiGM₄, GM₅ and epiGM₅) ([2]; serum of the mouse with a 6 mm tumor, diluted 200 times, Fig. 3): strongest

CC(=O)N[C@H]1[C@H]([C@H](O)[C@H](O)CO)OC(O)(C(=O)O)C[C@@H]1O (stereo partly shown) [N-acetylneuraminic acid]
Inhibition of the reactivity of mouse serum with epiGM₃ [3]: inhibited
